# Patent publication US11911386B2, “Methods of treating B-cell proliferative disorder” (BeiGene Switzerland GmbH, priority 2022, dated 2024)
# Read-outs that look alike come from different tables or passages of the source.
# Assays:
# [1] = molecular target: T1, P-glycoprotein (Homo sapiens, UniProt P08183); details: repeated dosing of zanubrutinib; cited from earlier work
# T1 construct: endogenous in cells; host or cells: human subjects in vivo (clinical study)
# [2] = any grade, listed as Zanubrutinib
# [3] = grade ≥3, listed as Zanubrutinib
# [4] = leading to treatment discontinuation
# T1 sequence (P08183 whole entry): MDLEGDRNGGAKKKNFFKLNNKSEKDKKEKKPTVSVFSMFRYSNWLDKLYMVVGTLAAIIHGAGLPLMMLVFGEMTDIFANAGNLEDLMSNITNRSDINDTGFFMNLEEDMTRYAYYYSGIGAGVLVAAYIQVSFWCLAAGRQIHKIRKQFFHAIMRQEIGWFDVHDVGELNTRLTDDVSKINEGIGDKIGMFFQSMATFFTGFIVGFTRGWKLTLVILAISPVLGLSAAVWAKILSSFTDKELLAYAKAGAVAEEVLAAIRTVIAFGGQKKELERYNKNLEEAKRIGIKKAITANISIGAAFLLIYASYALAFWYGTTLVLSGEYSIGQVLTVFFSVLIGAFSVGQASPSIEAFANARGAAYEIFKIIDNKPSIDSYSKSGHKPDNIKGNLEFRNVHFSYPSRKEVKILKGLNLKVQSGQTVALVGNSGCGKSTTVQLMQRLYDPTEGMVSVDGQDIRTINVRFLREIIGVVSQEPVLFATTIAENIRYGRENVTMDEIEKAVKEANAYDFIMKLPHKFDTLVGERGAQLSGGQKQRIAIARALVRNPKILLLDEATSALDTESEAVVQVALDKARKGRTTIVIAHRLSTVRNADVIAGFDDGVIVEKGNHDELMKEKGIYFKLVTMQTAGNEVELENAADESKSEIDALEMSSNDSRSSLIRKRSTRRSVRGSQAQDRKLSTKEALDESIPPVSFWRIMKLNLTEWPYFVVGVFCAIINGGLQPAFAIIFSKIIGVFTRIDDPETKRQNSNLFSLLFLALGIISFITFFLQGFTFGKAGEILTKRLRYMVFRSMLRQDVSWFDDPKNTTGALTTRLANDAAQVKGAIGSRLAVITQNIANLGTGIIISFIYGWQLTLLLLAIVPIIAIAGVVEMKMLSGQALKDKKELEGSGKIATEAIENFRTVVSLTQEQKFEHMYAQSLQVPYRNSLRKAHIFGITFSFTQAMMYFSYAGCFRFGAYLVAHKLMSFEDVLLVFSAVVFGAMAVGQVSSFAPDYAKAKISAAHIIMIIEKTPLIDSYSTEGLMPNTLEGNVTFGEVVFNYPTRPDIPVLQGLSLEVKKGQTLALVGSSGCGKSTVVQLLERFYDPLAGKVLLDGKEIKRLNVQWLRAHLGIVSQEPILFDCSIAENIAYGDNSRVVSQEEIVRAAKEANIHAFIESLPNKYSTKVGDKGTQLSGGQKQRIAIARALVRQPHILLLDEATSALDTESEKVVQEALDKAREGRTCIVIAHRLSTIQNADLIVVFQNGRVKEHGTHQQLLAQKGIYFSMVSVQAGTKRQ
smiles,measurement,setting,value
"C=CC(=O)N1CCC([C@@H]2CCNc3c(C(N)=O)c(-c4ccc(Oc5ccccc5)cc4)nn32)CC1 [zanubrutinib, (S)-7-(1-acryloylpiperidin-4-yl)-2-(4-phenoxyphenyl)-4,5,6,7-tetrahydropyrazolo[1,5-a]pyrimidine-3-carboxamide]",Mean increase of digoxin AUC0-t,[1],11%
same,Mean increase of digoxin Cmax,[1],34%
same,Treatment discontinuation due to adverse events,ITT,16.2%
same,Anemia AESI,any grade,50 (15.4) n (%)
same,Anemia TEAE,any grade,49 (15.1) n (%)
same,Arthralgia TEAE,any grade,47 (14.5) n (%)
same,Atrial fibrillation TEAE,any grade,15 (4.6) n (%)
same,Atrial fibrillation and flutter AESI,any grade,5.2 n (%)
same,COVID-19 TEAE,any grade,23.1 n (%)
same,Contusion TEAE,any grade,44 (13.6) n (%)
same,Cough TEAE,any grade,38 (11.7) n (%)
same,Diarrhea TEAE,any grade,16.0 n (%)
same,Fatigue TEAE,any grade,31 (9.6) n (%)
same,Hemorrhage AESI,any grade,137 (42.3) n (%)
same,Hypertension AESI,any grade,23.5 n (%)
same,Hypertension TEAE,any grade,21.9 n (%)
same,Infections AESI,any grade,71.3 n (%)
same,Major hemorrhage AESI,any grade,12 (3.7) n (%)
same,Muscle spasms TEAE,any grade,10 (3.1) n (%)
same,Neutropenia AESI,any grade,29.3 n (%)
same,Neutropenia TEAE,any grade,22.8 n (%)
same,Opportunistic infection AESI,any grade,7 (2.2%) n (%)
same,Pneumonia TEAE,any grade,34 (10.5) n (%)
same,Pyrexia TEAE,any grade,27 (8.3) n (%)
same,Rash TEAE,any grade,33 (10.2) n (%)
same,Secondary primary malignancies AESI,any grade,40 (12.3) n (%)
same,Skin cancers AESI,any grade,21 (6.5) n (%)
same,Thrombocytopenia AESI,any grade,42 (13.0) n (%)
same,Tumor lysis syndrome AESI,any grade,1 (0.3) n (%)
same,Upper respiratory tract infection TEAE,any grade,21.0 n (%)
same,≥1 AESI,any grade,294 (90.7) n (%)
same,≥1 TEAE,any grade,318 (98.1) n (%)
same,Atrial fibrillation and flutter AESI,[2],17 (5.2) n (%)
same,COVID-19 TEAE,[2],75 (23.1) n (%)
same,Diarrhea TEAE,[2],52 (16.0) n (%)
same,Hypertension AESI,[2],76 (23.5) n (%)
same,Hypertension TEAE,[2],71 (21.9) n (%)
same,Infections AESI,[2],231 (71.3) n (%)
same,Neutropenia AESI,[2],95 (29.3) n (%)
same,Neutropenia TEAE,[2],74 (22.8) n (%)
same,Opportunistic infection AESI,[2],7 (2.2) n (%)
same,Upper respiratory tract infection TEAE,[2],68 (21.0) n (%)
same,Acute coronary syndrome,cardiac AE,1 (0.3)
same,Acute myocardial infarction,cardiac AE,1 (0.3)
same,Angina pectoris,cardiac AE,4 (1.2)
same,Aortic valve incompetence,cardiac AE,0
same,Aortic valve stenosis,cardiac AE,1 (0.3)
same,Arrhythmia,cardiac AE,1 (0.3)
same,Arrhythmia supraventricular,cardiac AE,3 (0.9)
same,Arteriosclerosis coronary artery,cardiac AE,1 (0.3)
same,Atrial fibrillation,cardiac AE,15 (4.6)
same,Atrial flutter,cardiac AE,2 (0.6)
same,Atrial tachycardia,cardiac AE,0
same,Atrioventricular block,cardiac AE,0
same,Atrioventricular block first degree,cardiac AE,5 (1.5)
same,Bradyarrhythmia,cardiac AE,1 (0.3)
same,Bradycardia,cardiac AE,0
same,Bundle branch block left,cardiac AE,3 (0.9)
same,Bundle branch block right,cardiac AE,2 (0.6)
same,Cardiac arrest,cardiac AE,0
same,Cardiac discomfort,cardiac AE,0
same,Cardiac disorder,cardiac AE,0
same,Cardiac failure,cardiac AE,5 (1.5)
same,Cardiac failure acute,cardiac AE,0
same,Cardiac failure chronic,cardiac AE,0
same,Cardiac failure congestive,cardiac AE,1 (0.3)
same,Congestive cardiomyopathy,cardiac AE,0
same,Coronary artery disease,cardiac AE,2 (0.6)
same,Coronary artery insufficiency,cardiac AE,1 (0.3)
same,Defect conduction intraventricular,cardiac AE,1 (0.3)
same,Dilatation atrial,cardiac AE,1 (0.3)
same,Extrasystoles,cardiac AE,1 (0.3)
same,Left atrial hypertrophy,cardiac AE,1 (0.3)
same,Left ventricular dysfunction,cardiac AE,1 (0.3)
same,Left ventricular failure,cardiac AE,1 (0.3)
same,Mitral valve incompetence,cardiac AE,1 (0.3)
same,Myocardial fibrosis,cardiac AE,1 (0.3)
same,Myocardial infarction,cardiac AE,1 (0.3)
same,Myocardial ischemia,cardiac AE,3 (0.9)
same,Palpitations,cardiac AE,9 (2.8)
same,Pericardial effusion,cardiac AE,1 (0.3)
same,Sinoatrial block,cardiac AE,1 (0.3)
same,Sinus arrhythmia,cardiac AE,1 (0.3)
same,Sinus bradycardia,cardiac AE,5 (1.5)
same,Sinus node dysfunction,cardiac AE,0
same,Sinus tachycardia,cardiac AE,4 (1.2)
same,Supraventricular extrasystoles,cardiac AE,4 (1.2)
same,Supraventricular tachycardia,cardiac AE,2 (0.6)
same,Tachycardia,cardiac AE,1 (0.3)
same,Ventricular arrhythmia,cardiac AE,2 (0.6)
same,Ventricular extrasystoles,cardiac AE,3 (0.9)
same,Ventricular fibrillation,cardiac AE,0
same,Ventricular hypokinesia,cardiac AE,1 (0.3)
same,Anemia AESI,grade ≥3,7 (2.2) n (%)
same,Atrial fibrillation and flutter AESI,grade ≥3,2.5 n (%)
same,Hemorrhage AESI,grade ≥3,11 (3.4) n (%)
same,Hypertension AESI,grade ≥3,15.1 n (%)
same,Infections AESI,grade ≥3,26.5 n (%)
same,Major hemorrhage AESI,grade ≥3,11 (3.4) n (%)
same,Neutropenia AESI,grade ≥3,68 (21.0) n (%)
same,Opportunistic infection AESI,grade ≥3,5 (1.5) n (%)
same,Secondary primary malignancies AESI,grade ≥3,22 (6.8) n (%)
same,Skin cancers AESI,grade ≥3,7 (2.2) n (%)
same,Thrombocytopenia AESI,grade ≥3,11 (3.4) n (%)
same,Tumor lysis syndrome AESI,grade ≥3,1 (0.3) n (%)
same,≥1 AESI,grade ≥3,186 (57.4) n (%)
same,Atrial fibrillation and flutter AESI,[3],8 (2.5) n (%)
same,Hypertension AESI,[3],49 (15.1) n (%)
same,Infections AESI,[3],86 (26.5) n (%)
same,Anemia,grade ≥3 TEAE,7 (2.2)
same,Atrial fibrillation,grade ≥3 TEAE,6 (1.9)
same,Blood pressure increased,grade ≥3 TEAE,4 (1.2)
same,COVID-19,grade ≥3 TEAE,22 (6.8)
same,COVID-19 pneumonia,grade ≥3 TEAE,23 (7.1)
same,Neutrophil count decreased,grade ≥3 TEAE,17 (5.2)
same,Pneumonia,grade ≥3 TEAE,19 (5.9)
same,Syncope,grade ≥3 TEAE,9 (2.8)
same,Thrombocytopenia,grade ≥3 TEAE,9 (2.8)
same,AEs leading to dose reduction,"human, in vivo",40 (12.3)
same,Bronchopulmonary aspergillosis,"human, in vivo",2 (0.6)
same,COVID-19 TEAE Grade 3 or higher,"human, in vivo",40 (12.3) n (%)
same,Fungal abscess central nervous system,"human, in vivo",1 (0.3)
same,Herpes ophthalmic,"human, in vivo",0
same,Ophthalmic herpes zoster,"human, in vivo",0
same,Osteomyelitis fungal,"human, in vivo",0
same,Pneumonia fungal,"human, in vivo",2 (0.6)
same,Pneumonia legionella,"human, in vivo",0
same,Pulmonary tuberculosis,"human, in vivo",0
same,AEs leading to dose interruption,in vivo,162 (50.0)
same,AEs leading to treatment discontinuation,in vivo,50 (15.4)
same,Deaths due to cardiac events,in vivo,no patient receiving zanubrutinib died due to a cardiac disorder AE
same,Grade ≥3 TEAE,in vivo,218 (67.3)
same,Serious AEs,in vivo,136 (42.0)
same,Atrial fibrillation,[4],0
same,Cardiac arrest,[4],0
same,Cardiac failure,[4],0
same,Cardiac failure acute,[4],0
same,Congestive cardiomyopathy,[4],0
same,Myocardial infarction,[4],0
same,Palpitations,[4],0
same,Ventricular extrasystoles,[4],1 (0.3)
same,Ventricular fibrillation,[4],0
same,Pneumocystis jirovecii pneumonia,opportunistic infection AESI,1 (0.3)
same,Pneumonia cryptococcal,opportunistic infection AESI,1 (0.3)
